Laboratory results taken from ChEMBL document CHEMBL1130117, “Structure-activity relationships for the antileishmanial and antitrypanosomal activities of 1'-substituted 9-anilinoacridines” (J Med Chem, 1997).

Experiments:
Leishmania major = test: Concentration required to reduce incorporation of [3H]TdR in drug-treated cultures of intracellular Leishmania major to 50% of controls; format: functional, organism-based
[1] = Lipophilicity index (substitution method); format: physicochemical; details: octanol/water
Jurkat = test: Concentration required to reduce the growth of human Jurkat cells to 50% of control cultures; format: functional, cell-based
Trypanosoma brucei = test: Concentration required to inhibit the growth of extracellular Trypanosoma brucei trypomastigotes to 50% of untreated controls.; format: functional; details: read-out: ED50 (the source's name)
Leishmania donovani = test: Concentration required to reduce the number of macrophages infected with Leishmania donovani amastigotes to 50% of untreated controls.; format: functional; details: read-out: ED50 (the source's name)
Trypanosoma cruzi = test: Concentration required to reduce the number of macrophages infected with Trypanosoma cruzi amastigotes to 50% of untreated controls.; format: functional; details: read-out: ED50 (the source's name)
[2] = relative lipophilicity determined where possible by computation by the fragment constant method; format: physicochemical; details: octanol/water

SMILES | IC50 (Leishmania major) | Index [1] | IC50 (Jurkat) | EC50 (Trypanosoma brucei) | EC50 (Leishmania donovani) | EC50 (Trypanosoma cruzi) | Liphophilicity [2]
Nc1ccc(Nc2c3ccccc3nc3ccccc23)cc1 | 2.1 µM | -1.23 |  |  |  |  | 
CN(C)Cc1ccc(Nc2c3ccccc3nc3ccccc23)cc1 | 1 µM | -0.15 |  |  |  |  | 
COc1cc(NS(C)(=O)=O)ccc1Nc1c2ccc(N)cc2nc2cc(N)ccc12 | > 3 µM | -3.66 |  |  |  |  | 
NS(=O)(=O)c1ccc(Nc2c3ccccc3nc3ccccc23)cc1 | > 3 µM | -1.82 | 5 µM |  |  |  | 
CCCCCCN(C)c1ccc(Nc2c3ccc(Cl)cc3nc3ccc(OC)cc23)cc1 | 1.8 µM | 3.73 | > 20 µM | 4.3 µM | > 3 µM | > 3 µM | 
CCCCCCCc1ccc(Nc2c3ccccc3nc3ccccc23)cc1 | 0.8 µM | 3.99 | 13 µM |  |  |  | 
Nc1ccc2c(Nc3ccc(CN4CCCC4)cc3)c3ccc(N)cc3nc2c1 | > 3 µM |  | > 20 µM |  |  |  | 
CN(C)Cc1ccc(Nc2c3ccc(N)cc3nc3cc(N)ccc23)cc1 | 5 µM | -2.61 | 12 µM |  |  |  | 
CN(C)c1ccc(Nc2c3ccccc3nc3ccccc23)cc1 | 0.9 µM | 0.18 | 1 µM | 1.3 µM | 3.6 µM | > 3 µM | 
CN(C)Cc1ccc(Nc2c3ccc(Cl)cc3nc3cc(Cl)ccc23)cc1 | 2 µM | 1.27 |  |  |  |  | 
COc1cc(NS(C)(=O)=O)ccc1Nc1c2ccc(N(C)C)cc2nc2cc(N(C)C)ccc12 | > 3 µM | -0.84 | 3 µM |  |  |  | 
CN(C)c1ccc2c(Nc3ccccc3)c3ccc(N(C)C)cc3nc2c1 | 0.03 µM | 0.36 |  |  |  |  | 
Nc1ccc2c(=Nc3ccc(S(N)(=O)=O)cc3)c3ccc(N)cc3[nH]c2c1 | > 3 µM | -4.28 |  |  |  |  | 
CNc1ccc(Nc2c3ccccc3nc3ccccc23)cc1 | 1.5 µM | -0.47 |  |  |  |  | 
CCCCCCNc1ccc(Nc2c3ccc(Cl)cc3nc3ccc(OC)cc23)cc1 | 0.2 µM | 3.07 | 4 µM | > 0.3 µM | 4 µM | > 10 µM | 
NCCCCCCNS(=O)(=O)c1ccc(N=c2c3ccccc3[nH]c3ccccc23)cc1 | > 3 µM |  | > 20 µM |  |  |  | 
c1ccc(Nc2c3ccccc3nc3ccccc23)cc1 | 2.7 µM | 0 | 2.7 µM |  |  |  | 
Nc1ccc(Nc2c3ccccc3nc3ccccc23)cn1 | 3.9 µM | -2.74 | 3.6 µM |  |  |  | 
CCCCCCNc1ccc(Nc2c3ccc(N(C)C)cc3nc3cc(N(C)C)ccc23)cc1 | 0.16 µM | 2.74 | 1.75 µM | 0.2 µM | 0.25 µM | > 3 µM | 
CCCCCCN(CCCCCC)c1ccc(Nc2c3ccccc3nc3ccccc23)cc1 | 0.24 µM | 6.2 | 6.5 µM | > 0.3 µM | 1.35 µM | > 3 µM | 
CCCCCCN(C)c1ccc(Nc2c3ccc(N(C)C)cc3nc3cc(N(C)C)ccc23)cc1 | 0.07 µM | 3.4 | 1.75 µM | > 0.3 µM | 0.03 µM | 0.12 µM | 
CCCCCN(CCCCC)c1ccc(Nc2c3ccccc3nc3ccccc23)cc1 | 0.16 µM | 4.88 | 2.3 µM | 0.2 µM | > 90 µM | > 0.3 µM | 
NCCNCCc1ccc(Nc2c3ccccc3nc3ccccc23)cc1 | 0.7 µM |  | 4 µM |  |  |  | 
c1ccc2c(Nc3ccc(NC4CCCCC4)cc3)c3ccccc3nc2c1 | 0.55 µM | 2 | > 15 µM |  |  |  | 
CCCCCCNc1ccc(Nc2c3ccc(Cl)cc3nc3ccc(OC)cc23)cc1OC | 0.5 µM | 3.71 | > 20 µM | 0.6 µM | 3.2 µM | 9.3 µM | 
CCCCCNCc1ccc(Nc2c3ccccc3nc3ccccc23)cc1 | 2 µM |  | 1.53 µM |  |  |  | 
CCCCCCOc1ccc(Nc2c3ccccc3nc3ccccc23)cc1 | 1 µM | 2.87 | 5 µM |  |  |  | 
c1ccc2c(Nc3ccc(NC4CCCC4)cc3)c3ccccc3nc2c1 | 0.45 µM | 1.8 | 5 µM |  |  |  | 
c1ccc2c(Nc3ccc(CN4CCCC4)cc3)c3ccccc3nc2c1 | 0.2 µM |  | 2 µM |  |  |  | 

Next, values leading:

IC50 (Leishmania major) | Index [1] | IC50 (Jurkat) | EC50 (Trypanosoma brucei) | EC50 (Leishmania donovani) | EC50 (Trypanosoma cruzi) | Liphophilicity [2] | SMILES
0.55 µM | 2.38 | 17 µM | 3.9 µM | 12.3 µM | 2.2 µM |  | CCCCCCNc1ccc(Nc2c3ccccc3nc3ccccc23)cc1
0.35 µM | 3.56 | 2 µM | 1.46 µM | > 10 µM | > 10 µM |  | CCCCN(CCCC)c1ccc(Nc2c3ccccc3nc3ccccc23)cc1
0.4 µM | 1.18 | 1 µM | > 0.3 µM | 0.76 µM | > 3 µM |  | CCN(CC)c1ccc(Nc2c3ccccc3nc3ccccc23)cc1
0.3 µM | 3.04 | 3 µM | 0.33 µM | 1.2 µM | > 1 µM |  | CCCCCCN(C)c1ccc(Nc2c3ccccc3nc3ccccc23)cc1
1.3 µM |  | 8 µM |  |  |  | 0.38 sigma pi | CNc1ccc(Nc2c3ccccc3nc3ccccc23)cc1OC(C)C
1 µM | 0.68 | 4 µM | 0.88 µM | 4.4 µM | 3.3 µM |  | CCN(C)c1ccc(Nc2c3ccccc3nc3ccccc23)cc1
0.4 µM | 2.36 | 3.5 µM | 0.65 µM | 1.2 µM | 1.8 µM |  | CCCCCCNc1ccc(Nc2c3ccccc3nc3ccccc23)cc1OC
0.6 µM | 3.02 | 6.5 µM | 1.8 µM | 1.9 µM | > 0.3 µM |  | CCCCCCN(C)c1ccc(Nc2c3ccccc3nc3ccccc23)cc1OC
0.2 µM | 2.24 | 1.5 µM | 0.37 µM | > 10 µM | 2.5 µM |  | CCCN(CCC)c1ccc(Nc2c3ccccc3nc3ccccc23)cc1
0.2 µM | 3.29 | 1.3 µM |  |  |  |  | CCN(CC)CCCNc1ccc(Nc2c3ccccc3nc3ccccc23)cc1
0.3 µM | 4.22 | < 1 µM |  |  |  |  | CCN(CC)CCCc1ccc(Nc2c3ccccc3nc3ccccc23)cc1
> 3 µM | 0.66 | 16.5 µM |  |  |  |  | CCN(C)c1ccc(Nc2c3ccccc3nc3ccccc23)cc1OC
1.6 µM | 3.27 | 1.5 µM |  |  |  |  | CCN(CC)CCNc1ccc(Nc2c3ccccc3nc3ccccc23)cc1OC
3.6 µM | -0.49 | 11 µM |  |  |  |  | CNc1ccc(Nc2c3ccccc3nc3ccccc23)cc1OC
1.5 µM | -1.2 | 0.2 µM |  |  |  |  | COc1cc(NS(C)(=O)=O)ccc1Nc1c2ccccc2nc2ccccc12 [AMSACRINE]
